Source: the NIST ThermoML archive (doi:10.1016/j.fluid.2014.01.046)
Values joined by “and” are separate entries in the source; they are usually repeats but may differ in a detail not shown here. Identical values can stand only once. Numbers after ± are expanded uncertainties.

Tests used:
[1] = 298.15 K; 101.33 kPa; Liquid; Vibrating tube method
[2] = xn = mol fraction of the nth substance listed; details: 298.15 K, 101 kPa, Liquid, Vibrating tube method

`C1CCCCC1` [cyclohexane] gave a mass density [1] of 773.814 ± 2 kg/m3.
For `CN(C)C=O` [dimethylformamide] + C1CCCCC1, the mass density ([2]; x1 = 0.0013) was 773.912 ± 2 kg/m3, the mass density ([2]; x1 = 0.0032) was 774.059 ± 2 kg/m3 and the mass density ([2]; x1 = 0.00735) was 774.39 ± 2 kg/m3. It also gave a mass density ([2]; x1 = 0.00767) of 774.433 ± 2 kg/m3, a mass density ([2]; x1 = 0.0142) of 774.963 ± 2 kg/m3 and a mass density ([2]; x1 = 0.0191) of 775.4 ± 2 kg/m3. For the same compound, the mass density ([2]; x1 = 0.0404) was 777.361 ± 2 kg/m3, the mass density ([2]; x1 = 0.05) was 778.28 ± 2 kg/m3 and 778.287 ± 2 kg/m3 and 778.289 ± 2 kg/m3 and the mass density ([2]; x1 = 0.0554) was 778.816 ± 2 kg/m3. The mass density ([2]; x1 = 0.8496) was 906.747 ± 2 kg/m3, the mass density ([2]; x1 = 0.8504) was 906.951 ± 2 kg/m3 and the mass density ([2]; x1 = 0.8533) was 907.513 ± 2 kg/m3. It also gave a mass density ([2]; x1 = 0.8999) of 918.584 ± 2 kg/m3, a mass density ([2]; x1 = 0.9245) of 924.576 ± 2 kg/m3 and a mass density ([2]; x1 = 0.969) of 935.786 ± 2 kg/m3.
`CN(C)C=O` [dimethylformamide] gave a mass density [1] of 943.827 ± 2 kg/m3.
With `CCO` [ethanol] the mass density [1] was 785.106 ± 2 kg/m3.
